{"source": "patent US6528517B1", "about": "“Synthesis of quinobenzoxazine analogues with topoisomerase II and quadruplex interactions for use as antineoplastic agents” (Board of Regents, The University of Texas System, priority 1998, dated 2003)", "key": {"supercoiled pHOT1 DNA": {"system": "supercoiled pHOT1 DNA", "assay": "DNA unwinding assay", "assay_type": "biochemical", "conditions": "concentration shifting topoisomers to the middle position between relaxed and supercoiled bands", "method": "A 22 μl mixture of 0.25 μg of supercoiled pHOT1 DNA, 5 units of topoisomerase I in topoisomerase I buffer (provided with the kit) was incubated at 37° C. for 30 min. Two μl of various concentrations of drug was added, and the incubation was continued for another 30 min. The reactions were terminated by addition of SDS to 1%. Proteinase K was added to the reaction mixtures to ca. 50 μg/ml, and the reaction mixtures were incubated for 15-20 min at 56° C. After adding 0.1 volume of 10×gel loading buffer, the reaction mixtures were extracted with an equal volume of CIA (Chloroform:isoamyl Alcohol; 24:1). The samples were loaded on an 1% agarous gel that was cast in TPE buffer (36 mM Tris-HCl, pH 7.8, 1 mM EDTA, 30 mM NaH2PO4) and 0.2 μg/ml Chloroquine. The gel was run in TPE buffer at room temperature at 10 volts for 20 h, destained in water for 15 min, stained in 0.05 μg/ml ethidium bromide for 15 min, and destained again in water for 15 min. The gel was then photographed, scanned by FluoroImager, and analyzed by ImageQuaNT software (Molecular Dynamics)."}, "human telomerase": {"system": "human telomerase", "assay": "Telomerase inhibition assay (HeLa cell extract)", "assay_type": "biochemical", "method": "The assay used crude HeLa cell extract as the source of human telomerase. It measures the incorporation of ^32P-labeled dGTP into the primer extension of human telomere synthesis (Sun et al., 1998). […] Specific examples of such dual-acting compounds include compounds 2b and 2a (FIG. 3).\nThe assay was performed by using 5′-end biotinylated d[TTAGGG]3 as the telomere primer. Reaction mixtures (20 μl) containing 5 μl cell lysate (S-100), 50 mM Tris-OAc (pH 8.5), 50 mM K-OAc, 1 mM MgCl2, 5 mM BME, 1 mM spermidine, 1 μM telomere primer, 1.5 μM [α-^32P]-dGTP (800 Ci/mmol), 1 mM dATP, and 1 mM dTTP were incubated at 37° C. for 1 hr, and the reactions were terminated by adding 20 μl of […] streptavidin-coated Dynabeads suspension containing 10 mM Tris-HCl (pH 7.5), 1 mM EDTA, 2M KCl, and a 500 cpm biotinylated internal control. Streptavidin-coated Dynabeads bind selectively to the desired target (5′-biotinylated primer), forming a magnetic bead-targeted complex. The complex was separated from the suspension using a Dynal MPC magnet and washed several times with 2×SSC buffer containing 0.1% SDS to eliminate [α-^32P]-dGTP background. Telomerase reaction products were separated from the magnetic beads by protein denaturation with 5.7 M guanidine-HCl at 90° C. for 30 min. After ethanol precipitation, products were resolved on denaturating 10% polyacrylamide gel."}, "[1]": {"system": "G-quadruplex structure formed on the HT4 template", "assay": "DNA synthesis arrest assay (Taq polymerase primer extension)", "assay_type": "biochemical", "conditions": "55° C.", "method": "FIG. 12A and FIG. 12B. Compound 2b (see FIG. 3) concentration-dependent block of Taq polymerase DNA synthesis by the G-quadruplex structure formed on the HT4 template at 55° C. (A) Autoradiogram of a sequencing gel showing enhanced DNA synthesis pausing at the G-quadruplex site with increasing concentrations of 2b. Arrows indicate the positions of the full length product of DNA synthesis, the G-quadruplex pausing site, and the free primer. (B) Quantitation of the gel using ImageQuaNT software.\nThis assay is similar to that described by Han and co-workers (Han et al., 1999). Briefly, primers (24 nM) labeled with [γ-^32P] were mixed with template DNA (12 nM)) in a Tris-HCl buffer (10 mM Tris, pH 8.0) containing K^+ (50 mM for the HT4 template) and denatured by heating at 90° C. for 5 min. After cooling down to room temperature, 2b was added at various concentrations and incubated at room temperature for 15 min. The primer extension reactions were initiated by adding dNTP (final concentration 100 μM), MgCl2 (final concentration […]), and Taq DNA polymerase (2.5 U/reaction, Boehringer Mannheim). The products were separated on a 12% polyacrylamide sequencing gel. The gels were then dried and visualized on a PhosphorImager (Molecular Dynamics model 445 S1). […]"}, "sea urchin embryo system": {"system": "sea urchin embryo system", "assay": "Sea urchin embryo system"}, "B16 melanoma": {"system": "B16 melanoma", "assay": "Cancer cell growth inhibition assay (MTT)", "assay_type": "cell-based, murine", "method": "(§1) Exponentially growing cells in 0.1 ml medium were seeded on Day 0 in 96-well microtiter plates. On Day 1, 0.1-ml aliquots of medium containing graded concentrations test agent were added in duplicate to the cell plates. After incubation at 37° C. in a humidified incubator, the plates were centrifuged briefly (1-2 min at 1000 rpm), and 100 μl of the growth medium was removed. Cell cultures were incubated with 50 μl of 3-(4,5-dimethylthiazyl-2-yl)-2,5-diphenyltetrazolium bromide MTT, 1 mg/ml in Dubecco's PBS for 4 h at 37° C. The resulting purple formazan precipitate was solubilized with 200 μl of 0.4 N HCl in isopropyl alcohol. Absorbance was quantitated using a Bio-Rad Model 3550 microplate reader at a test wavelength of 570 nm and a reference wavelength of 630 nm. Absorbance values were transferred to a 486 personal computer, and the IC50 values were determined using the computer program EZ-ED50 (Chen et al., 1993)."}, "human topoisomerase II": {"molecular_target": "T1, human topoisomerase II (Homo sapiens, UniProt P11388)", "T1 construct": "purchased TopoGEN, Inc", "T1 sequence (P11388 whole entry)": "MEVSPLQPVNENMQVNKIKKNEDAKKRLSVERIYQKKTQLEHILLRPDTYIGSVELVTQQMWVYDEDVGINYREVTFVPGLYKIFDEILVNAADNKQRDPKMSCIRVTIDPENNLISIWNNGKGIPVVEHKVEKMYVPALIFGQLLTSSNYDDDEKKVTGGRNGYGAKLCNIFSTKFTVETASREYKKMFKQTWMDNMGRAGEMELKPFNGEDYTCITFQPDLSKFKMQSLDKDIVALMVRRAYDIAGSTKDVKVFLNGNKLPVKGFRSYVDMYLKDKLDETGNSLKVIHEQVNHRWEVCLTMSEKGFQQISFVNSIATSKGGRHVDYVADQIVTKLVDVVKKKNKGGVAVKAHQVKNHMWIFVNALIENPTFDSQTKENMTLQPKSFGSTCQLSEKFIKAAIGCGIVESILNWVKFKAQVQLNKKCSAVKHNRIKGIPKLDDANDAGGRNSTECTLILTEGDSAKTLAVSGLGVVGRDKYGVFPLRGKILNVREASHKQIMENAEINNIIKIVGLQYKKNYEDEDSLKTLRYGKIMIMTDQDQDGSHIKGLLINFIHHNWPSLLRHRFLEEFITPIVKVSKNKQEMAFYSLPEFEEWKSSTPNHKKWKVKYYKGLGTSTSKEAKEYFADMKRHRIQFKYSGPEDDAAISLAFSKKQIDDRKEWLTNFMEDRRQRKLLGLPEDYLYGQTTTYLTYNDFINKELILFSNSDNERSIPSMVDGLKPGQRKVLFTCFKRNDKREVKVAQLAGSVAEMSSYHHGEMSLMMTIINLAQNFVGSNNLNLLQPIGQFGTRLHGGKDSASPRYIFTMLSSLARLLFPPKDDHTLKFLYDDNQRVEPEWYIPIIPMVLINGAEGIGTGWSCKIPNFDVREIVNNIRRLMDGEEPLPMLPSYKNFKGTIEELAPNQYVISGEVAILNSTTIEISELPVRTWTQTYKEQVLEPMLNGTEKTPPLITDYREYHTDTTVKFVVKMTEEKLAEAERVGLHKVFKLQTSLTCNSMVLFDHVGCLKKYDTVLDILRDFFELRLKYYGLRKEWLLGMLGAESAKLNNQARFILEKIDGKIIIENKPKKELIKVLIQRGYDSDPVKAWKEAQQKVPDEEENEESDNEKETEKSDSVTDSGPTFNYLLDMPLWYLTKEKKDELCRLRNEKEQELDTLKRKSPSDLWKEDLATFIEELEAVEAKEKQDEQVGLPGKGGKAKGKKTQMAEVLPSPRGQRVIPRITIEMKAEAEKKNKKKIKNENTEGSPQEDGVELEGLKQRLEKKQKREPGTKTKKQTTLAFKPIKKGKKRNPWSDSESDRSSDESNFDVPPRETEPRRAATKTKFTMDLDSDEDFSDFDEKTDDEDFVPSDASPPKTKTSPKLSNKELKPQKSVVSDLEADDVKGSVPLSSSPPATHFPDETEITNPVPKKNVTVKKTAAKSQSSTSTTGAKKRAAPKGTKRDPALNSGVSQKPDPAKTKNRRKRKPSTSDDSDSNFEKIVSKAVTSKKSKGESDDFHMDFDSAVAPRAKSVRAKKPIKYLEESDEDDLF", "assay": "Decatenation assay (catenated to decatenated KDNA)", "assay_type": "biochemical", "conditions": "drug concentration that inhibits 50% of conversion of catenated to decatenated KDNA; read-out: topoisomerase II inhibition IC50", "method": "Kinetoplast DNA (KDNA), human topoisomerase II (170 KDa form), and DNA Unwinding Kit including supercoiled pHOT1 DNA, relaxed DNA marker, buffers, and human topoisomerase I were purchased from TopoGEN, Inc. Agarose was purchased from Fisher. Quinobenzoxazine A-62176 (S-enantiomer) was provided by Abbott Laboratories or prepared by published procedure (Chu and Maleczka, Jr., 1987).\n0.25 μg of KDNA was incubated with various concentrations of the quinobenzoxazines in a 20-μl reaction mixture containing 50 mM Tris-HCl (pH 8), 120 mM KCl, 10 mM MgCl2, and 0.5 mM each of ATP, dithiothreitol, and […] BSA for 10 min. Two units of human topoisomerase II (170 KDa form) were added to the mixture, which was then incubated at 37° C. for 30 min. The reaction was terminated with 0.1 volume of stop buffer (5% sarkosyl, 0.025% bromophenol blue, and 50% glycerol). The decatenation products were analyzed on 1% agarose gels run with 0.5 μg/ml ethidium bromide. The gels were scanned by FluoroImager and analyzed by ImageQuaNT software (Molecular Dynamics)."}, "HT-29 colon": {"system": "HT-29 colon", "assay": "Cancer cell growth inhibition assay (MTT)", "assay_type": "cell-based, human", "method": "as §1"}, "DU-145 prostate": {"system": "DU-145 prostate", "assay": "Cancer cell growth inhibition assay (MTT)", "assay_type": "cell-based, human", "method": "as §1"}, "Raji lymphoma": {"system": "Raji lymphoma", "assay": "Cancer cell growth inhibition assay (MTT)", "assay_type": "cell-based, human", "method": "as §1"}, "H226 non-small-cell lung": {"system": "H226 non-small-cell lung", "assay": "Cancer cell growth inhibition assay (MTT)", "assay_type": "cell-based, human", "method": "as §1"}, "MDA-231 breast": {"system": "MDA-231 breast", "assay": "Cancer cell growth inhibition assay (MTT)", "assay_type": "cell-based, human", "method": "as §1"}}, "note": "Entries after “also recorded” stand apart in the source; their conditions may differ.", "data": [{"smiles": "Cl.NC1CCN(c2c(F)cc3c(=O)c(C(=O)O)cn4c3c2Oc2c-4ccc3ccccc23)C1", "note": "(stereo not drawn) [Compound 2b, 1-(3-Aminopyrrolidin-1-yl)-2-fluoro-4-oxo-4H-pyrido[3,2,1-k,l]-benzo[f]-phenoxazine-5-carboxylic Acid]", "values": [{"measurement": "DNA unwinding concn", "setting": "supercoiled pHOT1 DNA", "result": 3, "unit": "µM"}, {"measurement": "telomerase inhibition (qualitative)", "setting": "human telomerase", "result": "dual-acting; also recorded: inhibit telomerase"}, {"measurement": "primer extension by Taq DNA polymerase", "setting": "[1]; 100 μM", "result": "completely inhibited"}, {"measurement": "polymerase pausing at the G-quadruplex site", "setting": "[1]; increasing concentration", "result": "enhanced pausing"}, {"measurement": "chromosomal aberrations", "setting": "sea urchin embryo system", "result": "cause chromosomal aberrations"}, {"measurement": "IC50", "setting": "B16 melanoma", "result": "20 ± 2", "unit": "nM"}, {"measurement": "IC50", "setting": "human topoisomerase II", "result": 240, "unit": "nM"}, {"measurement": "IC50", "setting": "HT-29 colon", "result": "26 ± 1", "unit": "nM"}, {"measurement": "IC50", "setting": "DU-145 prostate", "result": "30 ± 10", "unit": "nM"}, {"measurement": "IC50", "setting": "Raji lymphoma", "result": "34 ± 2", "unit": "nM"}, {"measurement": "IC50", "setting": "H226 non-small-cell lung", "result": "13 ± 5", "unit": "nM"}, {"measurement": "IC50", "setting": "MDA-231 breast", "result": "5 ± 1", "unit": "nM"}]}]}
